In PMC8710297, “Identification of potent SENP1 inhibitors that inactivate SENP1/JAK2/STAT signaling pathway and overcome platinum drug resistance in ovarian cancer” (Clinical and Translational Medicine, 2021):

How the values were obtained:
IGROV1 CR xenograft = IGROV1 CR xenograft tumor growth; assay type: in vivo; conditions: nude mice, i.p., cisplatin 8 mg/kg/2 days + UA 10 mg/kg/2 days or UAMMC9 2 mg/kg/2 days, compared to single agents
Protocol: Importantly, the treatments had minor toxicity (Figures S3B–D).
(§1) Cell viability was measured by SRB assay. […] Data were represented as mean ± SD (n = 3). (B) Colony formation assay in cells treated as indicated. […] (D) Growth curves of xenograft tumors are shown in (C). Data are represented as means ± SEM, n = 6 mice/group. **p < 0.01. […] (F) IGROV1 CR xenograft tumor growth curve by indicated treatments. Data are represented as means ± SD, n = 6 tumors/group. **p < 0.01. (G) Immunohistochemistry (IHC) staining against pSTAT3 antibodies of tumor samples from four groups of mice (magnification, 200x) (Upper). […]
ac etoni tri le (solvent A) and 0.02% phosphoric ac id in 10% acetonitrile in wate r (solvent B) at a constant solvent flow rate of 1.0 mL/min.
9. Molecular docking and dynamics simulation
Docking and scoring were performed by using Schrödinger software pa c ka ge. Lig Prep wa s incorp orated to refin e UA (ligand). Ionization state s within pH=7.0±2.0 were selected fo r docking. SENP1 crystal structu re was downloaded from protein datab ank (PDB ID: 2IY0, http :// ww w.rcsb.org /). […] The protein wa s added hyd ro g e n atom s and charges, removed wate rs by Protein Preparation Wi zard module. […] The extended sampling method wa s selected fo r confor mationa l search, and the resi du es in the ra n ge of ligand 5 Å we re further optimized. […]
6 tumors per group were assessed. […]

IGROV1 CR cells = assay: Synergy with cisplatin, SRB cell viability, combination index; assay type: cell-based
Protocol: as §1
represented as mean ± SD (n = 3) . ( B) Body we i ght changes of mice in each grou p treated […]
[…] Data are rep res e nted as mea ns ± SD, n= 6 tu mors /g roup . (C) H&E staining of paraffin‐embedded 3‐μm‐th ick tissue sec tions of the tumor, heart, lung , liver and kidney from 4 groups of mice (m agn i f ication , ×200) treated in B.
Cisplatin: sl ightl y […]
means ± SD, n=6 tumors/group . […]
1. Antibodies and re a ge nt s […]
[…] Momordin Ic ( A14773; Adooq Biosc ience) was dissolved in DMSO. Ursolic acid (A10961; Adooq Bioscience) wa s dissolved in DMSO. […]
Cell viability was detected using Sulforhodamine B (SRB) assay as described previously (3).
Absorbance at 51 0 nm was detected using a SpectraMax Re a d e r (Molecular Devices) and an alyzed with SoftMax Analys is Software (Molecular Devices). […]

| Structure (SMILES) | reduction of tumor growth in combination with cisplatin (IGROV1 CR xenograft) | synergy with cisplatin to inhibit IGROV1 CR cells (IGROV1 CR cells) |
| --- | --- | --- |
| C[C@H]1[C@H](C)CC[C@]2(C(=O)O)CC[C@]3(C)C(=CC[C@@H]4[C@@]5(C)CC[C@H](O)C(C)(C)[C@@H]5CC[C@]43C)[C@H]12 [UA, ursolic acid, reference compound] | remarkable synergy | great synergy |
| C[C@H]1[C@H](C)CC[C@]2(C(=O)NCC(=O)N(C)CCO)CC[C@]3(C)C(=CC[C@@H]4[C@@]5(C)CC[C@H](O)C(C)(C)[C@@H]5CC[C@]43C)[C@H]12 [UAMMC9] | remarkable synergy | great synergy |
